Data as given in PMC4555179, “Molecular insights into Zeaxanthin-dependent quenching in higher plants” (Scientific Reports, 2015).

Columns and labels:
[1] = molecular target: T1, CP24 (CP24-his tag) (Arabidopsis thaliana, UniProt Q9LMQ2); experiment: co-purified pigment, HPLC and absorption fit of acetone extract; assay type: binding; conditions: complex from control plants; endogenous pigment
T1 construct: gene LHCB6; mature thylakoid protein (transit peptide removed in vivo), C-terminal His tag kept; purified from plant thylakoids by sucrose gradient (Band 2) and Ni column; monomer
T1 sequence (Q9LMQ2 50-258): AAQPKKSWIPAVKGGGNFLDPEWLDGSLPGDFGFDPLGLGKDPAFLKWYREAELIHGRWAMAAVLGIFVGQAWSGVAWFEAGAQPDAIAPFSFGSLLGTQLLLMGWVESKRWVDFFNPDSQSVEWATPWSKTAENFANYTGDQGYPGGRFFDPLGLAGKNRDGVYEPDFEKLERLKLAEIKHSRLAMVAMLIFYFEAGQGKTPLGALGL

[2] = molecular target: T1, CP24 (CP24-his tag); experiment: as above; assay type: binding; conditions: complex from light-stressed plants (30 min high light), pH 5.5, 4 °C; endogenous pigment; peripheral, not in internal L1/L2 sites
Text: co-purified pigment, HPLC and absorption fit of acetone extract on CP24 (CP24-his tag)

Row | Compound | V [1] | Z [2]
1 | CC1=C[C@H](O)CC(C)(C)[C@H]1/C=C/C(C)=C/C=C/C(C)=C/C=C/C=C(C)/C=C/C=C(C)/C=C/C1=C(C)C[C@@H](O)CC1(C)C [L, lutein] | 0.89 ± 0.02 mol per monomer (normalised to 10 Chl) | –
2 | CC(/C=C/C=C(C)/C=C/[C@@]12O[C@]1(C)C[C@@H](O)CC2(C)C)=C\C=C\C=C(C)\C=C\C=C(C)\C=C\[C@@]12O[C@]1(C)C[C@@H](O)CC2(C)C [V, violaxanthin] | 0.89 ± 0.02 mol per monomer (normalised to 10 Chl) | –
3 | CC1=C(/C=C/C(C)=C/C=C/C(C)=C/C=C/C=C(C)/C=C/C=C(C)/C=C/C2=C(C)C[C@@H](O)CC2(C)C)C(C)(C)C[C@H](O)C1 [Z, zeaxanthin] | – | 0.20 ± 0.00 mol per monomer (normalised to 10 Chl)
